Converted amounts (≈) assume the structure as drawn. One block for each compound: values may come before it.
Key:
[1] = target: T1, Phosphate regulon sensor protein PhoR (Escherichia coli (strain K12), UniProt P08400); experiment: Inhibition of Escherichia coli DHp-catalytic domain PhoR autophosphorylation expressed in Escherichia coli RIL in presence of gamma-32P-ATP by SDS-PAGE analysis
T1 sequence (P08400 whole entry): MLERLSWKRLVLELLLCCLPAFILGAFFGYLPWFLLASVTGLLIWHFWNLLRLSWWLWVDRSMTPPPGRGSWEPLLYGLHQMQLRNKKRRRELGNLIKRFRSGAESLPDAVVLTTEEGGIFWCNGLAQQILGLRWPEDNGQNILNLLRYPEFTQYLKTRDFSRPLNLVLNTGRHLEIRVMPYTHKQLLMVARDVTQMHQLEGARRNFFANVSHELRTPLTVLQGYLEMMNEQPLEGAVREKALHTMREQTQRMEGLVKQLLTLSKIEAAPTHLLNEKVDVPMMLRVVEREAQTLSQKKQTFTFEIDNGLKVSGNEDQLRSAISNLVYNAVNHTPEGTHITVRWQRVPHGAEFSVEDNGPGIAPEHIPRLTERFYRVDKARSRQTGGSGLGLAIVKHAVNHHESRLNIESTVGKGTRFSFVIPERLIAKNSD

Staphylococcus aureus = experiment: Antimicrobial activity against Staphylococcus aureus 20231 after 24 hrs by double dilution method; assay type: functional; settings: Staphylococcus aureus, 20231, 24 h
[2] = target: T2, Phosphate regulon sensor protein phoR (Staphylococcus aureus subsp. aureus CN1, UniProt T1Y9P4); experiment: Inhibition of Staphylococcus aureus DHp-catalytic domain PhoR autophosphorylation expressed in Escherichia coli RIL in presence of gamma-32P-ATP by SDS-PAGE analysis
T2 sequence (T1Y9P4 whole entry): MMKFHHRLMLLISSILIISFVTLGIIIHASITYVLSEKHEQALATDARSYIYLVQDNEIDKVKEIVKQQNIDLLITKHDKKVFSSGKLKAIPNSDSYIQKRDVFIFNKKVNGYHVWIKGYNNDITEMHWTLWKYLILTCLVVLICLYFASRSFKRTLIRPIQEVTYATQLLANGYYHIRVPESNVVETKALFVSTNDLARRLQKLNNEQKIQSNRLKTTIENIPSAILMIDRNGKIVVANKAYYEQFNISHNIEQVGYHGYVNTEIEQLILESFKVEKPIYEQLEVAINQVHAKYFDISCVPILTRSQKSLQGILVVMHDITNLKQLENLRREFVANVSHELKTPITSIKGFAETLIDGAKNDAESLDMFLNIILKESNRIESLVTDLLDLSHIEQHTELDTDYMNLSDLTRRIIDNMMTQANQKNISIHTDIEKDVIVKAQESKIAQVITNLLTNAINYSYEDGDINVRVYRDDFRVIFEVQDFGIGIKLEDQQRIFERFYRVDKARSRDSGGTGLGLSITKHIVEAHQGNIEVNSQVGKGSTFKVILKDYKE

Escherichia coli [3] = experiment: Antimicrobial activity against Escherichia coli CFT073 after 24 hrs by double dilution method; assay type: functional; settings: CFT073, 24 h
Chemotaxis protein CheA = target: T3, Chemotaxis protein CheA (Escherichia coli (strain K12), UniProt P07363); experiment: Inhibition of Escherichia coli CheA preincubated for 30 mins followed by [gamma-33P]ATP addition after 30 mins by SDS-PAGE method
T3 sequence (P07363 whole entry): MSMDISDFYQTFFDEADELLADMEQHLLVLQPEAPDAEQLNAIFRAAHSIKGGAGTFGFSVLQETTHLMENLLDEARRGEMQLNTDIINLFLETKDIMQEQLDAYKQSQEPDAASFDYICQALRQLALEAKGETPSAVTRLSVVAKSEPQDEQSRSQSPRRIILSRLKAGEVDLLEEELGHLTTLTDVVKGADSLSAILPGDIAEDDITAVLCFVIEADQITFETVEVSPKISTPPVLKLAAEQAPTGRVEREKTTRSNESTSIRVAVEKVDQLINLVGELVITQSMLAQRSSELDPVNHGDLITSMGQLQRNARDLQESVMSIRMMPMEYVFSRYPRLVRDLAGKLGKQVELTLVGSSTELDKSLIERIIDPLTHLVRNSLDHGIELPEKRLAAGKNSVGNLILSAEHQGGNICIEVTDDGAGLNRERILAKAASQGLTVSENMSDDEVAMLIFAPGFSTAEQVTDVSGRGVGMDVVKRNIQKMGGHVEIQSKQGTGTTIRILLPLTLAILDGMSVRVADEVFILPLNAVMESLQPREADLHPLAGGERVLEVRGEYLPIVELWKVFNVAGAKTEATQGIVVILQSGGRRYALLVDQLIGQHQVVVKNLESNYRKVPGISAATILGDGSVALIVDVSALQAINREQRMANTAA

Escherichia coli [4] = experiment: Antimicrobial activity against Escherichia coli DC2 after 20 hrs by Mueller-Hinton Broth microdilution method; assay type: functional; settings: DC2, 20 h
[5] = target: T4, Sensor protein kinase WalK family protein (Streptococcus pneumoniae PCS8203, UniProt A0A0H2UQD0); experiment: Inhibition of Streptococcus pneumoniae VicK preincubated for 30 mins followed by [gamma-33P]ATP addition after 30 mins by SDS-PAGE method
T4 sequence (A0A0H2UQD0 whole entry): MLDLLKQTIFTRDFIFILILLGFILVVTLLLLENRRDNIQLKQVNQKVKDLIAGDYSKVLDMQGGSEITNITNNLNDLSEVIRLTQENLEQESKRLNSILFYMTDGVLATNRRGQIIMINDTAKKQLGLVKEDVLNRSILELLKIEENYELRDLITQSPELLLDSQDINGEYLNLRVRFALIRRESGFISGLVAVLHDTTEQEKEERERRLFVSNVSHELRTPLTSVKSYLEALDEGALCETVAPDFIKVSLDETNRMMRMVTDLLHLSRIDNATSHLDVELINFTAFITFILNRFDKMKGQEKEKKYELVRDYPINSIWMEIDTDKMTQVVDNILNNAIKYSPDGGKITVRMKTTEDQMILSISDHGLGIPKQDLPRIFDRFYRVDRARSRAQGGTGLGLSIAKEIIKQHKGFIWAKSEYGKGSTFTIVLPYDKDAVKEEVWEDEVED

[6] = Inhibition of Thermotoga maritima HK853 preincubated for 30 mins followed by B-ATPgammaS addition after 1 hr in dark by in-gel fluorescence analysis
Bacillus subtilis = experiment: Antimicrobial activity against Bacillus subtilis 3610 after 20 hrs by Mueller-Hinton Broth microdilution method; assay type: functional; settings: subsp. subtilis str. NCIB 3610, 20 h
[7] = system: Staphylococcus epidermidis; experiment: Antimicrobial activity against Staphylococcus epidermidis ATCC 35984 after 10 hrs; assay type: functional; settings: ATCC 35984, 10 h
[8] = target: T5, Sensor protein kinase WalK (Staphylococcus epidermidis (strain ATCC 35984 / RP62A), UniProt Q5HK19); experiment: Inhibition of recombinant Staphylococcus epidermidis ATCC 35984 N-terminal GB1-tagged YycG expressed in Escherichia coli BL21 (DE3) preincubated for 30 mins followed by ATP addition after 30 mins by kinase-glo assay
T5 sequence (Q5HK19 whole entry): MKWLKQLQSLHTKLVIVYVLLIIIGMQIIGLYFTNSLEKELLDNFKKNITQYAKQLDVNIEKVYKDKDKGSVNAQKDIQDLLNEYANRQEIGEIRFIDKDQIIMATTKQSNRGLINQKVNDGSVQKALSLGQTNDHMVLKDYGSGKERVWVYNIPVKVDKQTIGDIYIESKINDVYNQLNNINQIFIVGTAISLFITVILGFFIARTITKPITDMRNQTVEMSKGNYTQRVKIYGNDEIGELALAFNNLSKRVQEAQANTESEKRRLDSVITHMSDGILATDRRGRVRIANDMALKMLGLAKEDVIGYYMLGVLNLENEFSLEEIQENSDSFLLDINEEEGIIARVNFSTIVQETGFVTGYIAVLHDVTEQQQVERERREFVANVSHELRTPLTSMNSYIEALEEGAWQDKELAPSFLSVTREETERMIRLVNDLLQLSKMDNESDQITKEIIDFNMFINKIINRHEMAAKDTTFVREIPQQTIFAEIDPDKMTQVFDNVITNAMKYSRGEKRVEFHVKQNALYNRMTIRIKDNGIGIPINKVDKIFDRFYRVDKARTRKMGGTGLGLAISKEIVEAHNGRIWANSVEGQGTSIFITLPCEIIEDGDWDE

IC50 [1]: 16 µM
MIC (Staphylococcus aureus): 8 µg/mL (≈ 29.4 µM)
IC50 [2]: 212 µM
MIC (Escherichia coli [3]): > 500 µg/mL
Structure (SMILES): CCC(c1ccc(O)cc1)C(CC)c1ccc(F)cc1 (stereo unspecified)

Structure (SMILES): O=c1cc(-c2ccc(O)c(O)c2)oc2cc(O)cc(O)c12 [LUTEOLIN]
IC50 (Chemotaxis protein CheA): 111 µM
MIC (Escherichia coli [4]): 8 µg/mL (≈ 27.9 µM)
IC50 [5]: 216 µM
IC50 [6]: 15.1 µM
MIC (Bacillus subtilis): > 128 µg/mL

MIC [7]: 1.6 µg/mL (≈ 3.06 µM)
IC50 [8]: 24 µM
Structure (SMILES): O=C(O)c1cccc(-c2ccc(/C=c3\sc4n(c3=O)C(c3ccc(F)cc3)C=C(c3ccccc3)N=4)o2)c1 (stereo unspecified)

— ChEMBL document CHEMBL4184156, “Repurposing Hsp90 inhibitors as antibiotics targeting histidine kinases” (Bioorg Med Chem Lett, 2017)
